Two molecules from ChEMBL document CHEMBL6087488, “Development of the First-in-Class FEM1B-Recruiting Histone Deacetylase Degraders” (J Med Chem, 2025) can be followed below.

Calls of active or inactive are those of the source. The rule behind the calls is not given here.

For experiment [1], the target named is T1, Protein fem-1 homolog B/Histone deacetylase 1 (Homo sapiens, UniProt Q13547+Q9UK73). Kind of experiment: PROTAC activity at FEM1B/HDAC1 in human MM1.S cell lysate assessed as initial degradation at 1 uM measured after 24 hrs by Western immunoassay. The experiment is classed as subcellular.
Experiment [2] has as its system MM1.S. Kind of experiment: Induction of apoptosis in human MM1.S cells assessed as increase in late apoptotic cells at 10 uM measured after 48 hrs by annexin V-FITC/PI staining based assay. The experiment is classed as functional, cell-based.
In experiment [3] the target is T1, Protein fem-1 homolog B/Histone deacetylase 1. In words: PROTAC activity at FEM1B/HDAC1 in human MDA-MB-231 cell lysate assessed as protein degradation at 10 uM measured after 24 hrs by Western immunoassay relative to control. The experiment is classed as subcellular.
Experiment [4] has the same target. In words: PROTAC activity at FEM1B/HDAC1 in human U-87 MG cell lysate assessed as protein degradation at 10 uM measured after 24 hrs by Western immunoassay relative to control. The experiment is classed as subcellular.
Experiment [5] deals with Protein fem-1 homolog B/REST corepressor 3 (Homo sapiens) (UniProt Q9P2K3+Q9UK73). In words: PROTAC activity at FEM1B/RCOR3 in human MM1.S cell lysate assessed as protein degradation at 0.5 uM measured after 6 hrs by global quantitative proteomics analysis. The experiment is classed as subcellular.
For experiment [6], the system named is MM1.S. In words: Induction of cell cycle arrest in human MM1.s cells assessed as increase in cells at Sub-G1 phase at 10 uM measured after 48 hrs by propidium iodide based flow cytometry. The class given is functional. (A flow cytometer gives signals particle by particle.)
Experiment [7] concerns the target Protein fem-1 homolog B/Histone deacetylase 8 (Homo sapiens) (UniProt Q9BY41+Q9UK73). Kind of experiment: PROTAC activity at FEM1B/HDAC8 in human MM1.S cell lysate assessed as protein degradation at 1 uM measured after 24 hrs by Western immunoassay. The class given is subcellular.
The target in experiment [8] is Protein fem-1 homolog B/Protein deacetylase HDAC6 (Homo sapiens) (UniProt Q9UBN7+Q9UK73). In words: PROTAC activity at FEM1B/HDAC6 in human MM1.S cell lysate assessed as protein degradation at 1 uM measured after 24 hrs by Western immunoassay. The class given is subcellular.
The target of experiment [9] is T1, Protein fem-1 homolog B/Histone deacetylase 1. Kind of experiment: PROTAC activity at FEM1B/HDAC1 in human MM1.S cell lysate assessed as neddylation-dependent protein degradation at 1 uM in presence of MLN4924 measured after 24 hrs by Western immunoassay. The experiment is classed as subcellular.
For experiment [10], the target named is Protein fem-1 homolog B/Histone deacetylase 4 (Homo sapiens) (UniProt P56524+Q9UK73). In words: PROTAC activity at FEM1B/HDAC4 in human MM1.S cell lysate assessed as protein degradation at 1 uM measured after 24 hrs by Western immunoassay. The class given is subcellular.
Experiment [11] deals with Protein fem-1 homolog B/Nuclear receptor corepressor 1 (Homo sapiens) (UniProt O75376+Q9UK73). Kind of experiment: PROTAC activity at FEM1B/NCOR1 in human MM1.S cell lysate assessed as protein degradation at 0.5 uM measured after 6 hrs by global quantitative proteomics analysis. The class given is subcellular.
The target of experiment [12] is Protein fem-1 homolog B//Mesoderm induction early response protein 1 (Homo sapiens) (UniProt Q9UK73+Q8N108). In words: PROTAC activity at FEM1B/MIER1 in human MM1.S cell lysate assessed as protein degradation at 0.5 uM measured after 6 hrs by global quantitative proteomics analysis. The class given is subcellular.
Experiment [13] has as its target T1, Protein fem-1 homolog B/Histone deacetylase 1. Kind of experiment: PROTAC activity at FEM1B/HDAC1 in human MV4-11 cell lysate assessed as protein degradation at 10 uM measured after 24 hrs by Western immunoassay relative to control. The class given is subcellular.
Experiment [14] has the same target. Kind of experiment: PROTAC activity at FEM1B/HDAC1 in human MM1.S cell lysate assessed as protein degradation at 1 uM measured after 24 hrs by Western immunoassay. The class given is subcellular.
Experiment [15] has as its target Protein fem-1 homolog B/Histone deacetylase 3 (Homo sapiens) (UniProt O15379+Q9UK73). Kind of experiment: PROTAC activity at FEM1B/HDAC3 in human MM1.S cell lysate assessed as protein degradation at 1 uM measured after 24 hrs by Western immunoassay. The experiment is classed as subcellular.
In experiment [16] the test system is MM1.S. Kind of experiment: Induction of cell cycle arrest in human MM1.S cells assessed as reduction in cells at […] phase at 10 uM measured after 48 hrs by propidium iodide based flow cytometry. The class given is functional.
Experiment [17] deals with MM1.S. In words: Induction of apoptosis in human MM1.S cells assessed as increase in early apoptotic cells at 10 uM measured after 48 hrs by annexin V-FITC/PI staining based assay. The class given is functional, cell-based.
In experiment [18] the target is T1, Protein fem-1 homolog B/Histone deacetylase 1. Kind of experiment: PROTAC activity at FEM1B/HDAC1 in human MM1.S cell lysate assessed as neddylation-dependent protein degradation at 1 uM in presence of vorinostat measured after 24 hrs by Western immunoassay. The class given is subcellular.
In experiment [19] the target is Protein fem-1 homolog B/Histone deacetylase 2 (Homo sapiens) (UniProt Q92769+Q9UK73). Kind of experiment: PROTAC activity at FEM1B/HDAC2 in human MM1.S cell lysate assessed as protein degradation at 1 uM measured after 24 hrs by Western immunoassay. The class given is subcellular.
Experiment [20] deals with Protein fem-1 homolog B/REST corepressor 1 (Homo sapiens) (UniProt Q9UKL0+Q9UK73). In words: PROTAC activity at FEM1B/RCOR1 in human MM1.S cell lysate assessed as protein degradation at 0.5 uM measured after 6 hrs by global quantitative proteomics analysis. The experiment is classed as subcellular.
Experiment [21] has as its target Protein fem-1 homolog B//Paired amphipathic helix protein Sin3a (Homo sapiens) (UniProt Q9UK73+Q96ST3). Kind of experiment: PROTAC activity at FEM1B/SIN3A in human MM1.S cell lysate assessed as protein degradation at 0.5 uM measured after 6 hrs by global quantitative proteomics analysis. The experiment is classed as subcellular.
The target in experiment [22] is T1, Protein fem-1 homolog B/Histone deacetylase 1. Kind of experiment: PROTAC activity at FEM1B/HDAC1 in human MM.1S cell lysate assessed as maximal initial degradation at measured after 24 hrs by Western immunoassay relative to control. The experiment is classed as subcellular. As to conditions: MM1.S.
Experiment [23] deals with Protein fem-1 homolog B/Lysine-specific histone demethylase 1A (Homo sapiens) (UniProt O60341+Q9UK73). In words: PROTAC activity at FEM1B/KDM1A (LSD1) in human MM1.S cell lysate assessed as protein degradation at 0.5 uM measured after 6 hrs by global quantitative proteomics analysis. The experiment is classed as subcellular.
For experiment [24], the system named is MDA-MB-231. In words: Antiproliferative activity against human MDA-MB-231 cells assessed as cell viability up to 50 uM measured after 72 hrs incubation by MTT assay relative to control. The experiment is classed as functional.
Experiment [25] deals with MV4-11. Kind of experiment: Antiproliferative activity against human MV4-11 cells assessed as cell viability measured after 72 hrs incubation by MTT assay. The experiment is classed as functional, cell-based. As to conditions: MV4-11, 72 h. Background: Tetrazolium dyes change colour on reduction, which living cells bring about.
In experiment [26] the target is T1, Protein fem-1 homolog B/Histone deacetylase 1. In words: PROTAC activity at FEM1B/HDAC1 in human MM1.S cell lysate assessed as neddylation-dependent protein degradation at 1 uM measured after 24 hrs by Western immunoassay. The experiment is classed as subcellular.
Experiment [27] relates to MM1.S. In words: Antiproliferative activity against human MM1.S cells assessed as cell viability up to 50 uM measured after 72 hrs incubation by MTT assay. The class given is functional.
Experiment [28] has as its system U-87 MG. Kind of experiment: Antiproliferative activity against human U-87 MG cells assessed as cell viability up to 50 uM measured after 72 hrs incubation by MTT assay relative to control. The class given is functional, U-87MG ATCC.

T1 sequence (Q13547 whole entry, looked up): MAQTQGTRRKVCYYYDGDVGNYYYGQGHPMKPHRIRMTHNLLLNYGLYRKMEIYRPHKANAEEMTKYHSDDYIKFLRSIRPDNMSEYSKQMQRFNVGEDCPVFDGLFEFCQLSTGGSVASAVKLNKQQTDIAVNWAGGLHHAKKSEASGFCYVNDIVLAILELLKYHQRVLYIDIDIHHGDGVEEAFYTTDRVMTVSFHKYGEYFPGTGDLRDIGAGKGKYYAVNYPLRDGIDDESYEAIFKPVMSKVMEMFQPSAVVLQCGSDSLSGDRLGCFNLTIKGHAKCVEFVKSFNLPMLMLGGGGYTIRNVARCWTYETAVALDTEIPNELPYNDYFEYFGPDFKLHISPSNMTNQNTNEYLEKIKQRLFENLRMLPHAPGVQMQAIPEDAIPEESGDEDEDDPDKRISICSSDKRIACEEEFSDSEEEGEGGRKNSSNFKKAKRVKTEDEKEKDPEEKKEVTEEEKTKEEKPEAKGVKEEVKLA
T1 sequence (Q9UK73 whole entry, looked up): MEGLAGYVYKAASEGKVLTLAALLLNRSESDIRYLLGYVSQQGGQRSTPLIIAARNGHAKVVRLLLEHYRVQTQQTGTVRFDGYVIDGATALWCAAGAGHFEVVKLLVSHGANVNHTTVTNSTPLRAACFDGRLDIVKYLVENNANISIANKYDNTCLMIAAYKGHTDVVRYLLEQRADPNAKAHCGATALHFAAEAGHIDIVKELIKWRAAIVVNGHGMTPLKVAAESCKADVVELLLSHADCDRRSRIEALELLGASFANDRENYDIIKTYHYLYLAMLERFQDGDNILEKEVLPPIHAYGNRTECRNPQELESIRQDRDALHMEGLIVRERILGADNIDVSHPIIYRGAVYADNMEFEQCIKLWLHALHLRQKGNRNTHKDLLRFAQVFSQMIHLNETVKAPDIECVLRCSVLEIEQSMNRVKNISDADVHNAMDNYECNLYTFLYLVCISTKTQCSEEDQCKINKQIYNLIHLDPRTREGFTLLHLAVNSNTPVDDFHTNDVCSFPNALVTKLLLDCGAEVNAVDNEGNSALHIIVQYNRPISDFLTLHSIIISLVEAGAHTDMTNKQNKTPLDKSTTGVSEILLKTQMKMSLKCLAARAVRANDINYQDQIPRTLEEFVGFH
Protein fem-1 homolog B/Lysine-specific histone demethylase 1A (Homo sapiens), sequence (Q9UK73 whole entry, looked up, other chains not shown): as the sequence (Q9UK73 whole entry, looked up) above
Protein fem-1 homolog B/REST corepressor 3 (Homo sapiens), sequence (Q9UK73 whole entry, looked up, other chains not shown): as the sequence (Q9UK73 whole entry, looked up) above
Protein fem-1 homolog B/REST corepressor 1 (Homo sapiens), sequence (Q9UK73 whole entry, looked up): as above
Protein fem-1 homolog B/REST corepressor 1 (Homo sapiens), sequence (Q9UKL0 whole entry, looked up): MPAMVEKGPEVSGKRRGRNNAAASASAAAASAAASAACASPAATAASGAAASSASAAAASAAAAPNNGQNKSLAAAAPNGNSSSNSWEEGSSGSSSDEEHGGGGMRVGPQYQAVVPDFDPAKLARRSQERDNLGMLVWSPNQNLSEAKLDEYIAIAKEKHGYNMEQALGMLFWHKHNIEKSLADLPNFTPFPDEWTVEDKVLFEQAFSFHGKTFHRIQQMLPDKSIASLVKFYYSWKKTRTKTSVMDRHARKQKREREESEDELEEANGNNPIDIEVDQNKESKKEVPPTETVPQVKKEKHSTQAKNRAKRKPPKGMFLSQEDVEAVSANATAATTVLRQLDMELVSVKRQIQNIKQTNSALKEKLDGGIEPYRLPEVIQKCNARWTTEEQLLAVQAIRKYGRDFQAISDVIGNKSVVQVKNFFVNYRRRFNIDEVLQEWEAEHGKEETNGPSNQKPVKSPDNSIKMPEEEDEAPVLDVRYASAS
Protein fem-1 homolog B/Histone deacetylase 4 (Homo sapiens), sequence (P56524 whole entry, looked up): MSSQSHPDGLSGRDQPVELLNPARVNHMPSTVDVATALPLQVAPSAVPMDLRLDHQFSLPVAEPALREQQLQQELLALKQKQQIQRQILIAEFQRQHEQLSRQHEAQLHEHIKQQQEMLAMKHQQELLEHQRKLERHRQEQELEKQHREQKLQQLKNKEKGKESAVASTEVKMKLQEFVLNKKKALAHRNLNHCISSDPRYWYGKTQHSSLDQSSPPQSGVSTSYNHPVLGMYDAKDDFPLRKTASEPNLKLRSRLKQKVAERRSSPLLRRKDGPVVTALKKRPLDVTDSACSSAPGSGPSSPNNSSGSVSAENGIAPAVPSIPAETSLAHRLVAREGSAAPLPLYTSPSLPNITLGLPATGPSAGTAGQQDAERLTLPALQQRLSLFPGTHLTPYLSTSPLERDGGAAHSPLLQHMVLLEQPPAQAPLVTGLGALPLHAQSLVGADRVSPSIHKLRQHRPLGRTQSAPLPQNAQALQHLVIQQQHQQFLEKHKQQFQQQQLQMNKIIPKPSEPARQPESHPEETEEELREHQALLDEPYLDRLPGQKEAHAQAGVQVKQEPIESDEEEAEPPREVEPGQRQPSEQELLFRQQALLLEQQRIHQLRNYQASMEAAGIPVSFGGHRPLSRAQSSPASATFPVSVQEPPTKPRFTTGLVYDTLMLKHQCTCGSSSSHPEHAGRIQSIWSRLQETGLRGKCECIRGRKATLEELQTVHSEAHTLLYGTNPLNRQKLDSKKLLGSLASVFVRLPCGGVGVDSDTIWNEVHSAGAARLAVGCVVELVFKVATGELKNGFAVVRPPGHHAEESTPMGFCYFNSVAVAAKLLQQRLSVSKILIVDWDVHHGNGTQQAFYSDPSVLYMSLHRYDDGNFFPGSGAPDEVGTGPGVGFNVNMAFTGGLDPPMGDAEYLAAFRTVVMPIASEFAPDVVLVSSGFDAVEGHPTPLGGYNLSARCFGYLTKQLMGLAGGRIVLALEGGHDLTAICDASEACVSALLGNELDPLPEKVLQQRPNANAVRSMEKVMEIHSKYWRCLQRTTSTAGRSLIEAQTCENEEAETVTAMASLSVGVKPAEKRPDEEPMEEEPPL
Protein fem-1 homolog B/Histone deacetylase 4 (Homo sapiens), sequence (Q9UK73 whole entry, looked up): as the sequence (Q9UK73 whole entry, looked up) above
Protein fem-1 homolog B/Histone deacetylase 3 (Homo sapiens), sequence (O15379 whole entry, looked up): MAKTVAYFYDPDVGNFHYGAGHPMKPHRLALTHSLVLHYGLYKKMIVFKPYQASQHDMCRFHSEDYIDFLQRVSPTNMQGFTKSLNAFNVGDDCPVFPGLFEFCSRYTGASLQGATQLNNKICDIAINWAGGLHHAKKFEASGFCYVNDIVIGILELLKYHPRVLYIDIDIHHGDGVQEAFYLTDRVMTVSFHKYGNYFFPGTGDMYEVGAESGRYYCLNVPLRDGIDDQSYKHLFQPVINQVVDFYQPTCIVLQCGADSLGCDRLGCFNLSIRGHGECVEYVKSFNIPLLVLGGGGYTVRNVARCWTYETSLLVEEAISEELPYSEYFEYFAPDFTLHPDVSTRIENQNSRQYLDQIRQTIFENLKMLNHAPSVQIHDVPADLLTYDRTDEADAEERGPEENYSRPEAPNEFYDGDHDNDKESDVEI
Protein fem-1 homolog B/Histone deacetylase 3 (Homo sapiens), sequence (Q9UK73 whole entry, looked up): as the sequence (Q9UK73 whole entry, looked up) above
Protein fem-1 homolog B//Paired amphipathic helix protein Sin3a (Homo sapiens), sequence (Q96ST3 whole entry, looked up): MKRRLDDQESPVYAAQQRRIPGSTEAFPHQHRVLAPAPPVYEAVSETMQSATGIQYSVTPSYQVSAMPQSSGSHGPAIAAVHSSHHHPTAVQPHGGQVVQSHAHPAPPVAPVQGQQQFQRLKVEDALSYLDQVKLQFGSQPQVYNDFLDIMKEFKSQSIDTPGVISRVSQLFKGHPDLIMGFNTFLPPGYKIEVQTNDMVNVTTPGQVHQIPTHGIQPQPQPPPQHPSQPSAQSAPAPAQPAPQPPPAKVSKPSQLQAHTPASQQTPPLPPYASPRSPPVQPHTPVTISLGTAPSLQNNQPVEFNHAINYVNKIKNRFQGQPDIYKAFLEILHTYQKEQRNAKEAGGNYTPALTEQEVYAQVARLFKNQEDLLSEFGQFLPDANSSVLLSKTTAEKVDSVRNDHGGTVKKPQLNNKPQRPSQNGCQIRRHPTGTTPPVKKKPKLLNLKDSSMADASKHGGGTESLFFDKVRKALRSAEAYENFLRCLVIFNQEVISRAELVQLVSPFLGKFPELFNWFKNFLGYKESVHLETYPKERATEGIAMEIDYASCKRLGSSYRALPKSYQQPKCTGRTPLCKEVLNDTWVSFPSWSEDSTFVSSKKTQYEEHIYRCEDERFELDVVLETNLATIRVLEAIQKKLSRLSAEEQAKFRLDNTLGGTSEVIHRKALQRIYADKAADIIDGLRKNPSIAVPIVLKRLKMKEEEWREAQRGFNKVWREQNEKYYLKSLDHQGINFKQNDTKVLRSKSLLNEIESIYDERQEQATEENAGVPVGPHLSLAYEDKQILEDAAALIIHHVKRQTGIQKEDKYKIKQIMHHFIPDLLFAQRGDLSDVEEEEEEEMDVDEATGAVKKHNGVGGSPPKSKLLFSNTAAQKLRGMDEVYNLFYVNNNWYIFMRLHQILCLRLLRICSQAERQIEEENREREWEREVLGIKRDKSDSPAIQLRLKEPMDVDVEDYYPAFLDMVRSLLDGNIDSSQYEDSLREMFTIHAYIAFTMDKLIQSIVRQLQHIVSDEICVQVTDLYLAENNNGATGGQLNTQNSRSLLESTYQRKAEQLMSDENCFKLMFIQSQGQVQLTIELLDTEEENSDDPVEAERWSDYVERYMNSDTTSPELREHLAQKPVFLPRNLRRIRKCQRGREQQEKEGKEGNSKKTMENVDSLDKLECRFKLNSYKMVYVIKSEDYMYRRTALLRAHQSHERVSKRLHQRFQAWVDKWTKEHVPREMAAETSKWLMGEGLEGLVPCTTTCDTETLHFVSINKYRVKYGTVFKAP
Protein fem-1 homolog B//Paired amphipathic helix protein Sin3a (Homo sapiens), sequence (Q9UK73 whole entry, looked up): as the sequence (Q9UK73 whole entry, looked up) above

A word on the Emax: it is the greatest response seen or fitted, relative to the assay's reference. On to `N#CCCN(C(=O)CCl)c1ccc2c(c1)OCCN2CC(=O)NCC(=O)Nc1ccc(C(=O)NCCCCCCC(=O)NO)cc1`, for which the Activity in [1] turned out to be 62.3%; in experiment [3] it was 53%; in experiment [4] it was 75%; in experiment [13] it was 87%. For the same molecule, the outcome in [2], in experiment [5], in experiment [6], in experiment [11], in [12] and in [14] was Active. The result in experiment [15], in experiment [16], in [17], in [19], in experiment [20] and in [21] was Active. In addition, in experiment [23], the outcome was Active. Further, the outcome in [7], in experiment [8], in experiment [9], in experiment [10] and in experiment [18] was inactive. Besides, in [22], the maximal effect (Emax) came to 85.2%.
For orientation: EC50 means the concentration giving half of the maximal effect. Turning to `CCC(=O)N(CCC#N)c1ccc2c(c1)OCCN2CC(=O)NCC(=O)Nc1ccc(C(=O)NCCCCCCC(=O)NO)cc1.O=C(O)C(F)(F)F`, the outcome in experiment [2], in experiment [3], in experiment [4], in [6], in [26] and in experiment [13] was inactive. Also, the result in experiment [16] and in experiment [17] was inactive. In addition, the Activity result in [24], in experiment [27] and in [28] was “<=25%” each time. The EC50 in experiment [25] was determined as 14.1 µM.
